Data as given in US7205309B2, “Quinazoline derivatives” (Hoffmann-La Roche Inc., priority 2002, dated 2007).

Target: T1, recombinant mouse NPY5-receptor (mNPY5) (Mus musculus, UniProt O70342)
T1 construct: The full-length cDNA encoding the mouse NPY5 (mNPY5) receptor was amplified from mouse brain cDNA; expressed in transfected cells; membranes used
T1 sequence (O70342 1-466): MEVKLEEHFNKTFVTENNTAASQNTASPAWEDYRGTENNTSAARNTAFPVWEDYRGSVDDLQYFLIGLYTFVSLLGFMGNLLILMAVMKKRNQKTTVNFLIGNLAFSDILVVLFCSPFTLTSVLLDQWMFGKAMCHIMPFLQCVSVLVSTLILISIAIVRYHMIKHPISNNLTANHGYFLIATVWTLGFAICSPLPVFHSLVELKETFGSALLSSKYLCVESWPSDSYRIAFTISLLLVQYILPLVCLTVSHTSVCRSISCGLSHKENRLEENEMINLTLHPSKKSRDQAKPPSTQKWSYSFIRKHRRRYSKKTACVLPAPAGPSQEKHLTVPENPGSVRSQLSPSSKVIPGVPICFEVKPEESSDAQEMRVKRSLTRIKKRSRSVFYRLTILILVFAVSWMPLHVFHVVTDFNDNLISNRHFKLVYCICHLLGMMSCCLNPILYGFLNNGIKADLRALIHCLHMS
Assay: Radioligand competition binding
Details: membranes of HEK293 cells expressing mNPY5; 100 pM [125I]labeled peptide YY; 1 h at 22° C.; read-out: NPY5-R (mouse) IC50
From the text: The full-length cDNA encoding the mouse NPY5 (mNPY5) receptor was amplified from mouse brain cDNA using specific primers, designed based on the published sequence, and Pfu DNA-Polymerase. The amplification product was subcloned into the mammalian expression vector pcDNA3 using Eco RI and XhoI restriction sites. Positive clones were sequenced and one clone, encoding the published sequence was selected for generation of stable cell clones.
Human embryonic kidney 293 (HEK293) cells were transfected with 10 μg mNPY5 DNA using the lipofectamine reagent. Two days after transfection, geneticin selection (1 mg/ml) was initiated and several stable clones were isolated. One clone was further used for pharmacological characterization.
Human embryonic kidney 293 cells (HEK293), expressing recombinant mouse NPY5-receptor (mNPY5) were broken by three freeze/thawing cycles in hypotonic Tris buffer (5 mM, pH 7.4, 1 mM MgCl2), homogenized and centrifuged at 72,000×g for 15 min. The pellet was washed twice with 75 mM Tris buffer, pH 7.4, containing 25 mM MgCl2 and 250 mM sucrose, 0.1 mM phenylmethylsulfonylfluoride and 0.1 mM 1,10-pheneanthrolin, resuspended in the same buffer and stored in aliquots at −80° C. Protein was determined according to the method of Lowry using bovine serum albumine (BSA) as a standard. […]

SMILES	IC50 [nM]
Cc1nc(N2CCCC2)c2ccc(OCc3ccc(C#N)cc3)cc2n1 [Compound 3, 4-(2-methyl-4-pyrrolidin-1-yl-quinazolin-7-yloxymethyl)-benzonitrile]	9
Cc1nc(N2CCCC2)c2ccc(NCC(C)C)cc2n1 [Compound 24, isobutyl-(2-methyl-4-pyrrolidin-1-yl-quinazolin-7-yl)-amine]	3
